The values below come from paper PMC5187517, “Pectocin M1 (PcaM1) Inhibits Escherichia coli Cell Growth and Peptidoglycan Biosynthesis through Periplasmic Expression” (Antibiotics, 2016).

SMILES strings stand for the structures.

The target in the experiment is T1, pectocin M1 (PcaM1) (Pectobacterium carotovorum, UniProt C6DJ69).
T1 construct: gene PC1_2303; full-length, C-terminal Arg-Ser-His6 tag kept, initiator Met lost; expressed in E. coli C43(DE3) from pMLD365; monomer; theoretical mass 30,401 Da with tag (observed m/z 30,266); plant-like ferredoxin domain plus cytotoxic domain
T1 sequence (C6DJ69 2-268): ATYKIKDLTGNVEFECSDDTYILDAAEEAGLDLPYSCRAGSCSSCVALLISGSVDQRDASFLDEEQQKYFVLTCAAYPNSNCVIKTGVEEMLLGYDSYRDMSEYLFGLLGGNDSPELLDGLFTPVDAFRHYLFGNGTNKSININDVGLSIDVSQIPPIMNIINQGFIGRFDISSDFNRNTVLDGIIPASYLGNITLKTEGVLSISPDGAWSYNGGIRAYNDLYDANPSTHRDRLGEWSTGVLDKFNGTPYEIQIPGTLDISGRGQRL
The experiment in a line: radiolabelled lipid II hydrolysis, TLC with radioactivity scanner. It is filed as biochemical. The settings on record: labelled compound ([14C] in GlcNAc moiety); 100 mM Tris-HCl pH 7.5, 20 mM MgCl2, 150 mM NaCl, 10 mM 2-mercaptoethanol, 0.2% DDM, 37 °C, lipid II 6–100 µM.

In the case of `CC(=O)N[C@H]1[C@H](O[C@H]2[C@H](O[C@H](C)C(=O)N[C@@H](C)C(=O)N[C@H](CCC(=O)N[C@@H](CCC[C@@H](N)C(=O)O)C(=O)N[C@H](C)C(=O)N[C@H](C)C(=O)O)C(=O)O)[C@@H](NC(C)=O)[C@@H](OP(=O)(O)OP(=O)(O)OC/C=C(/C)CC/C=C(/C)CC/C=C(/C)CC/C=C(/C)CC/C=C(/C)CC/C=C(/C)CC/C=C(/C)CC/C=C(/C)CC/C=C(\C)CC/C=C(\C)CCC=C(C)C)O[C@@H]2CO)O[C@H](CO)[C@@H](O)[C@@H]1O` [lipid II, C55-PP-MurNAc(L-Ala-γ-D-Glu-meso-A2pm-D-Ala-D-Ala)-GlcNAc], the Km (in general, the substrate concentration at which the rate is half of its maximum) was found to be 55 µM.
